This is an account of results in ChEMBL document CHEMBL4364295, “Discovery of a First-in-Class Receptor Interacting Protein 2 (RIP2) Kinase Specific Clinical Candidate, 2-((4-(Benzo[d]thiazol-5-ylamino)-6-(tert-butylsulfonyl)quinazolin-7-yl)oxy)ethyl Dihydrogen Phosphate, for the Treatment of Inflammatory Diseases” (J Med Chem, 2019).

A short description of data set [1]: AUC in Gottingen minipig at 1 mg/kg, po by LC/MS/MS analysis. The following applies: pig, in vivo. Type of data set: ADME, organism-based, Sus scrofa.
The nature of data set [2]: Terminal half life in Gottingen minipig at 1 mg/kg, po or 0.4 mg/kg, iv by LC/MS/MS analysis. Type of data set: ADME, organism-based, Sus scrofa. The conditions noted are these: pig, in vivo, read-out: beta t1/2 (converted).
For another data set, the system named is Intestinal mucosa. Description: Antiinflammatory activity in crohn's disease patient derived inflamed intestinal mucosa assessed as reduction in IL6 production measured after overnight incubation by immunoassay. Type of data set: functional, tissue-based. The conditions noted are these: Homo sapiens.
Data set [3] in a line: AUC in Sprague-Dawley rat at 20 mg/kg, po using crystalline sample during 7 day dose ranging study by LC/MS/MS analysis. Type of data set: ADME, organism-based. The following applies: in vivo.
Data set [4] in a line: Volume of distribution at steady state in Gottingen minipig at 1 mg/kg, po or 0.4 mg/kg, iv by LC/MS/MS analysis. Type of data set: ADME, organism-based, Sus scrofa. The conditions noted are these: pig, in vivo, read-out: Vdss.
Data set [5] can be described thus: Cmax in Gottingen minipig at 1 mg/kg, po by LC/MS/MS analysis. Type of data set: ADME, organism-based, Sus scrofa. The conditions noted are these: pig, in vivo. Further details: dose 1 mg/kg, route oral; call rule not given here.
The nature of data set [6]: Passive permeability in MDCK cells. Type of data set: ADME, cell-based, Canis lupus familiaris. The conditions noted are these: dog, read-out: permeability.
Data set [7] is described as follows: Volume of distribution at steady state in Beagle dog at 2 mg/kg, po or 1.1 mg/kg, iv by LC/MS/MS analysis. The following applies: in vivo, read-out: Vdss. Type of data set: ADME, organism-based, Canis lupus familiaris.
The nature of data set [8]: Unbound fraction in rat blood. Type of data set: ADME, tissue-based.
For the next data set, the target named is T1, Toll-like receptor 9 (Homo sapiens, UniProt Q9NR96).
T1 sequence (Q9NR96 whole entry): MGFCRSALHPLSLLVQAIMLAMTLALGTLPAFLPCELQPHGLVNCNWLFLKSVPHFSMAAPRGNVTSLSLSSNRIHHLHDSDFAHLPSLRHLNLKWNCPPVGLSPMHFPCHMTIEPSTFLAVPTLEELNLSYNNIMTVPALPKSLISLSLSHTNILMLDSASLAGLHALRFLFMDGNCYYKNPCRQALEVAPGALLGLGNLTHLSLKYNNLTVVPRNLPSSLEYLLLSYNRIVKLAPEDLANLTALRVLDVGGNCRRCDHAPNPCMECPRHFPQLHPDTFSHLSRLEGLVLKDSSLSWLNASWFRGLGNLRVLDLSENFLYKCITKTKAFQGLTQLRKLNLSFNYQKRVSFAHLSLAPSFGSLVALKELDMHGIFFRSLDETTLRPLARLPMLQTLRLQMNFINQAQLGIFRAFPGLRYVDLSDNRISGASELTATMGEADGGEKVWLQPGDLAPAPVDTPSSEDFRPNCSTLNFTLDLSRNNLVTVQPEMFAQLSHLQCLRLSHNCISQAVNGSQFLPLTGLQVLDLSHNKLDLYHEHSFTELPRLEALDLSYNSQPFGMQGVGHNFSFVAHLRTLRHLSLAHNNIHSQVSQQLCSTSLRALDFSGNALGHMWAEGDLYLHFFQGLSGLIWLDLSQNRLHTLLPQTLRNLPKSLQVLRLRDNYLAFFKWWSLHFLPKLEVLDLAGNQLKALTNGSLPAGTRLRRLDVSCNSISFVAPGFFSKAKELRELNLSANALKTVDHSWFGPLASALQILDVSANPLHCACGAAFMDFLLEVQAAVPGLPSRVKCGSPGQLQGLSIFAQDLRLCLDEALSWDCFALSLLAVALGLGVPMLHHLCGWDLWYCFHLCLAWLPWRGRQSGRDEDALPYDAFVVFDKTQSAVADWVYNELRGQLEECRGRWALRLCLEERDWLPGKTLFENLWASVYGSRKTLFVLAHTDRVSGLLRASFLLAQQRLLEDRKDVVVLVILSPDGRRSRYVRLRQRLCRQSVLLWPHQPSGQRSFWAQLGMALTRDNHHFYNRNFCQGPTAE
Description: Inhibition of TLR9 in human monocytes assessed as reduction in CpG-ODN-induced IL8 production. Type of data set: cell-based.

Data set [9] can be described thus: Oral bioavailability in Gottingen minipig at 1 mg/kg by LC/MS/MS analysis. Type of data set: ADME, organism-based, Sus scrofa. The conditions noted are these: pig, in vivo.
Data set [10] can be described thus: Volume of distribution at steady state in Sprague-Dawley rat at 2 mg/kg, po or 0.5 mg/kg, iv by LC/MS/MS analysis. Type of data set: ADME, organism-based. The conditions noted are these: in vivo, read-out: Vdss.
Data set [11] can be described thus: Unbound fraction in minipig blood. Type of data set: ADME, tissue-based, Sus scrofa. The following applies: pig.
A short description of data set [12]: Terminal half life in Beagle dog at 2 mg/kg, po or 1.1 mg/kg, iv by LC/MS/MS analysis. The conditions noted are these: in vivo, read-out: beta t1/2 (converted). Type of data set: ADME, organism-based, Canis lupus familiaris.
A short description of data set [13]: Drug uptake in Gottingen minipig systemic circulation at 2 mg/kg, po or 1 mg/kg, iv by LC/MS/MS analysis. Type of data set: ADME, organism-based, Sus scrofa. The following applies: pig, in vivo.
Data set [14] in a line: Half life in rat blood. Type of data set: ADME, tissue-based.
Data set [15] can be described thus: Half life in rat intestinal S9 fraction. Type of data set: ADME, subcellular, Intestine.
Data set [16] can be described thus: Prodrug conversion in human hepatocytes assessed as benzothiazole ring opening at 20 uM measured after 4 hrs. Type of data set: ADME, cell-based, Hepatocyte.
A short description of data set [17]: Prodrug conversion in rat hepatocytes assessed as hydrogenation at 20 uM measured after 4 hrs. Type of data set: ADME, cell-based, Hepatocyte.
Data set [18] in a line: AUC in Sprague-Dawley rat assessed as 2-((4-(Benzo[d]thiazol-5-ylamino)-6-(tert-butylsulfonyl)quinazolin-7-yl)oxy)ethanol level at 2 mg/kg, po by LC/MS/MS analysis. The conditions noted are these: in vivo. Type of data set: ADME, organism-based.
The nature of data set [19]: Terminal half life in Sprague-Dawley rat assessed as 2-((4-(Benzo[d]thiazol-5-ylamino)-6-(tert-butylsulfonyl)quinazolin-7-yl)oxy)ethanol level at 2 mg/kg, po or 1.1 mg/kg, iv by LC/MS/MS analysis. Type of data set: ADME, organism-based. The following applies: in vivo.
Data set [20] is described as follows: Prodrug conversion in Sprague-Dawley rat gut assessed as 2-((4-(Benzo[d]thiazol-5-ylamino)-6-(tert-butylsulfonyl)quinazolin-7-yl)oxy)ethanol formation at 2 mg/kg, po or 0.5 mg/kg, iv measured at 15 to 120 mins post dose. Type of data set: ADME, organism-based. The following applies: in vivo.
A short description of data set [21]: Toxicity in Gottingen minipig during 6 week study. More on the design: species or system Sus scrofa. The following applies: pig, in vivo, 1008 h.
A short description of data set [22]: Prodrug conversion in rat hepatocytes assessed as oxidation at 20 uM measured after 4 hrs. Type of data set: ADME, cell-based, Hepatocyte.
Data set [23] can be described thus: Prodrug conversion in Sprague-Dawley rat hepatic portal vein assessed as 2-((4-(Benzo[d]thiazol-5-ylamino)-6-(tert-butylsulfonyl)quinazolin-7-yl)oxy)ethanol formation. Type of data set: ADME. The conditions noted are these: in vivo.
The nature of data set [24]: Terminal half life in Beagle dog assessed as 2-((4-(Benzo[d]thiazol-5-ylamino)-6-(tert-butylsulfonyl)quinazolin-7-yl)oxy)ethanol level at 2 mg/kg, po or 0.9 mg/kg, iv by LC/MS/MS analysis. Type of data set: ADME, organism-based, Canis lupus familiaris. The following applies: in vivo.
Data set [25] is described as follows: Prodrug conversion in human hepatocytes assessed as dephosphorylation at 20 uM measured after 4 hrs. Type of data set: ADME, cell-based, Hepatocyte.
Data set [26] can be described thus: Prodrug conversion in human hepatocytes assessed as 2-(4-(benzo[d]thiazol-5-ylamino)-7-(2-hydroxyethoxy)quinazolin-6-ylsulfonyl)-2-methylpropan-1-ol formation at 20 uM measured after 4 hrs. Type of data set: ADME, cell-based, Hepatocyte.
Data set [27] can be described thus: Prodrug conversion in Han Wistar rat skin assessed as 2-((4-(Benzo[d]thiazol-5-ylamino)-6-(tert-butylsulfonyl)quinazolin-7-yl)oxy)ethanol formation at 2 mg/kg, iv administered as infusion for 4 hrs. The conditions noted are these: in vivo. Type of data set: ADME, organism-based, Zone of skin.
The nature of data set [28]: Prodrug conversion in minipig hepatocytes assessed as 2-(4-(benzo[d]thiazol-5-ylamino)-7-(2-hydroxyethoxy)quinazolin-6-ylsulfonyl)-2-methylpropan-1-ol formation at 20 uM measured after 4 hrs. Type of data set: ADME, cell-based, Sus scrofa, Hepatocyte. The conditions noted are these: pig.

Broadly, the AUC is concentration integrated over time. One may read the IC50 as the concentration needed to halve the response being measured. The Cmax is the peak of the concentration-time curve. By fraction unbound is commonly meant free concentration divided by total concentration. The low end stands for extensive binding, the high end for weak binding.

Turning to `CC(C)(C)S(=O)(=O)c1cc2c(Nc3ccc4scnc4c3)ncnc2cc1OCCO`, the AUC in [1] amounted to 85 ng·h/mL. Also, the half-life in data set [2] was 1.9 h; in data set [12] it was 5.1 h. In addition, in the data set with Intestinal mucosa, the Activity entry is “Dose-dependent effect”. Further, the values for the IC50 with Intestinal mucosa and on Toll-like receptor 9 were 0.01 µM and over 10 µM, respectively. In addition, the AUC at 168 h in [3] amounted to 8800 ng·h/mL. For the same compound, the Vd in data set [4] amounted to 1.8 L/kg; in [7], 2.6 L/kg; in data set [10] it was 4.1 L/kg. The highest concentration (Cmax) in data set [5] came out at 31 ng/mL. For the same compound, the Papp in [6] was 16.6 ×10⁻⁶ cm/s. The results for the fraction unbound in data set [8] and in data set [11] were 0.11 and 0.068, respectively. Also, the F in data set [9] is 26%.

Consider `CC(C)(C)S(=O)(=O)c1cc2c(Nc3ccc4scnc4c3)ncnc2cc1OCCOP(=O)(O)O.[CaH2]`, for which the Drug uptake entry in [13] was “Not Active”. Also, the half-life in data set [14] is 0.583 h; in [15], 3.3 min. For the same compound, the Drug metabolism result in data set [16], in data set [17], in data set [20], in [22], in [23] and in data set [25] was “Metabolite_Detected” each time. The Drug metabolism result in [26], in data set [27] and in data set [28] was “Metabolite_Detected” throughout. Moreover, in [18], the AUC came to 560 ng·h/mL. For the same compound, the “beta t1/2” value in data set [19] amounted to 2.4 h; in data set [24], 2.9 h. Moreover, the Activity entry in [21] was “Non-Toxic”.
